One block for each compound: values may come before it.
What was measured:
[1] = format: in vivo, human
Method: 24 healthy volunteers (12 females) aged 18-65 years are recruited. Those using NSAIDs, oral corticosteroids, artificial sweeteners (Splenda, aspartame), lactulose, mannitol, or medications affecting gastrointestinal transit are excluded. All 24 participants undergo a baseline urinary excretion assay using the three saccharides (100 mg ^13C mannitol, 100 mg ^12C mannitol, and 1000 mg lactulose) dissolved in 250 mL of water. 500 mL of water is administered 30 minutes after the sugars are ingested to aid in the production of urine. Participants are allowed regular amounts of water throughout the study, and no standardized meals are provided. Cumulative urine samples for 0-2 hours are collected while they are in the CRU and stored. Two containers are provided for the cumulative 2-8 hour collection and cumulative 8-24 hour collection. Participants are instructed to return these collections the following day. The collections are subjected to HPLC-MS for quantitative estimation of the sugars.
These participants receive 75 mg of Indomethacin orally 8 hour and 30 minutes prior to a second urinary excretion assay using the same three sugars. Finally, these participants undergo a third assay after 4 weeks from the end of the second assay in the absence of any indomethacin or other NSAIDs or perturbations. All three assays are done using the same protocol and urinary collections. Additionally, these participants undergo an upper endoscopy with duodenal biopsies at baseline and after Indomethacin challenge. The ^13C mannitol-assay based urinary excretion findings are correlated with histology findings on light microscopy and with ex vivo mucosal barrier function/permeability. For this, tw freshly obtained biopsies are mounted in 4 mL Ussing chambers (Physiological Instruments, California, USA) exposing a 0.03 cm^2 area. Transepithelial resistance is measured using Ag/AgCl electrodes with agar-salt bridges and current delivered with platinum electrodes. Macromolecular flux across biopsies are studied using FITC Dextran (4 kDa, Molecular Probes, New York). At 30-minute intervals for a total of 3 hours, basal compartment fluorescence are analyzed.
At each visit, baseline excretion of ^12C mannitol was higher than the ^13C mannitol (p<0.0001) with 5 of 73 subjects excreting >10 mg of ^12C mannitol prior to test dose administration. At visit 1, one subject excreted 62 mg of ^12C mannitol, which dropped to 28 mg after test dose administration.
This recovered completely at visit 3. Both low and high dose Indomethacin had similar effects. […] It is possible that intestinal microflora can influence the L:M based excretion assay for intestinal permeability. To test this, seven patients underwent a fourth testing following bowel prep with MoviPrep. […] This could reflect increased transit after the bowel prep resulting in less contact time between the sugar and the absorptive surface area.

[2] = human, in vivo
Method: The following was performed to determine if administration of ^13C-mannitol can be used to measure intestinal permeability. Ten healthy volunteers (five females) received oral sugars after 8 hours of fasting. Those volunteers using tobacco, NSAIDs, oral corticosteroids, sweeteners, lactulose, mannitol, or medications affecting gastrointestinal transit were excluded. Three saccharides (100 mg of ^13C-mannitol, 100 mg of ^12C-mannitol (regular mannitol), and 1000 mg of ^12C-lactulose (regular lactulose)) dissolved in 250 mL of water were administered. 0-2 hour cumulative mannitol and 8-24 hour cumulative lactulose or mannitol excretion were measured to assess small intestinal and colonic permeability, respectively. After baseline urine collection, collections were pooled for 0-2 hours, 2-8 hours, and 8-24 hours following administration of test sugars. High performance liquid chromatography-tandem mass spectrometry was performed to determine urinary sugar concentrations. Cumulative excretions and lactulose:mannitol (L:M) ratios (ratio of fractional excretion) were calculated. Mann-Whitney test was used for statistical analysis.

[3] = Cumulative urinary excretion of oral sugars by HPLC-MS in IBS-C patients and healthy volunteers (Example 3); format: in vivo, human
Method: The following was performed to determine duodenal and colonic barrier function and endotoxin activity in females with IBS-C in comparison to healthy. 16 IBS-C (Rome III) patients and 13 matched healthy volunteers (females) were given oral lactulose, ^12C mannitol and ^13C mannitol measured cumulatively over 0-2 and 8-24 hours by HPLC-MS. 10 biopsies were obtained from duodenum and sigmoid colon. Mucosal transepithelial resistance (TER), FITC dextran (4 KDa), and E. coli K12 BioParticle flux were measured in Ussing chambers. Endotoxin activity (blood) was measured towards gram-negative bacterial lipopolysaccharide. Unpaired 2-sided t-tests were used for comparisons.

colonic bacteria = settings: in vivo, po; cited from earlier work
[4] = human, in vivo; remark: listed apart in the source
Method: The following was performed to evaluate safety and effectiveness of oral nutritional therapy with serum-derived bovine immunoglobulin (SBI) on symptoms, epithelial barrier function, and mucosal expression of pivotal genes in small intestinal mucosa (SI) in patients with IBS-D. This open-label pilot study evaluated effects of SBI, 5.0 g twice daily for 8 weeks, in 15 patients with IBS-D (Rome III) on symptoms, tryptophan metabolism (kynurenine to tryptophan ratio), intestinal permeability [measured by two sugars (^13C-mannitol and lactulose) urine excretion: 0-2 hours (SI) and 2-8 hours (SI and colon)] and distal duodenal mucosal mRNA expression of pivotal genes including tight junction, secretory mechanisms, tissue repair proteins and chemokines. Bowel function and abdominal pain (worst and average) were evaluated using a daily diary including the Bristol Stool Form Scale, and bile acid homeostasis by fasting serum FGF-19 and 7αC4. Statistical analysis was based on ITT principles using paired tests (comparing baseline with results of therapy over 8 weeks or in final 2 weeks) and included imputation for missing data for one patient.

[5] = Indomethacin challenge, p=0.004

Compound: OC[C@@H](O)[C@@H](O)[C@H](O)[C@H](O)CO [^12C-mannitol]
Baseline excretion ([1]; in vivo): higher | Change of excretion in the 0-2 hr interval compared with baseline ([1]; in vivo): four subjects exhibited no significant increase | Cumulative (0-24h) mean recovery, comparison 12C vs 13C mannitol ([1]; in vivo): significantly higher | Excretion of one subject after test dose administration ([1]; in vivo): 28 mg | Excretion of one subject at baseline ([1]; in vivo): 62 mg | Subjects excreting >10 mg prior to test dose administration ([1]; in vivo): 5 of 73 | L:M ratio: Mean (SEM), 0-2 hours [2]: 0.006 | L:M ratio: Mean (SEM), 2-8 hours [2]: 0.009 | L:M ratio: Mean (SEM), 8-24 hours [2]: 0.002 | Participants with disproportionately high baseline excretion [2]: Three of the ten

Compound: OC[C@@H](O)[C@@H](O)[C@H](O)[C@H](O)CO [mannitol]
Fraction of orally ingested mannitol metabolized by colonic bacteria (colonic bacteria): about 75%

Compound: COc1ccc2c(c1)c(CC(=O)O)c(C)n2C(=O)c1ccc(Cl)cc1 [Indomethacin]
0-2h lactulose excretion compared to baseline (visit 1) ([1]; Indomethacin challenge, p<0.0001): increased | 2-8h lactulose excretion compared to baseline (visit 1) [1, 5]: increased | 8-24h lactulose excretion compared to baseline (visit 1) [1, 5]: increased | 12C or 13C mannitol excretion with Indomethacin treatment ([1]; either excretion time-point): did not increase

Now from value to compound:

0-2 hr cumulative urinary excretion (mg), mean (SEM) ([3]; Healthy Volunteers (n=11)): 0.99(0.12) mg | 8-24 hr cumulative urinary excretion (mg), mean (SEM) ([3]; Healthy Volunteers (n=11)): 0.72(0.31) mg | 0-2 hr cumulative urinary excretion (mg), mean (SEM) ([3]; IBS-C (n=16)): 1.12(0.19) mg | 8-24 hr cumulative urinary excretion (mg), mean (SEM) ([3]; IBS-C (n=16)): 1.06(0.55) mg
Compound: OC[C@H]1O[C@@H](O[C@@H]2[C@@H](CO)OC(O)(CO)[C@H]2O)[C@H](O)[C@@H](O)[C@H]1O (mixture of isomers) [lactulose]

Excretion at baseline in IBS-D patients vs 8 healthy controls [4]: did not differ | Baseline excretion ([1]; in vivo): nearly undetectable | Change of excretion in the 0-2 hr interval compared with baseline ([1]; in vivo): increased in all cases | L:M ratio: Mean (SEM), 0-2 hours [2]: 0.007 | L:M ratio: Mean (SEM), 2-8 hours [2]: 0.01 | L:M ratio: Mean (SEM), 8-24 hours [2]: 0.01 | Mean lower baseline contamination vs 12C mannitol [2]: 20 fold | Participants with disproportionately high baseline excretion [2]: none
Compound: ^13C-mannitol
